Results taken from patent US12145923B2, “Tetrahydroisoquinoline compound, preparation method therefor, pharmaceutical composition containing same, and use thereof” (SHANGHAI INSTITUTE OF MATERIA MEDICA, CHINESE ACADEMY OF …, priority 2018, dated 2024).
Read-outs that look alike come from different tables or passages of the source. One block for each molecule: values may come before it.

Tests used:
[1] = test system: tumor necrosis factor-α secretion in RAW 264.7 cells; assay: Inhibition of LPS-stimulated tumor necrosis factor-α secretion in RAW 264.7 cells (ELISA); assay type: cell-based, mouse; details: Mus musculus, RAW264.7, 4 h, read-out: Tumor necrosis factor-α inhibition rate/%; for inhibition at 0.5 µM: RAW 264.7, 0.5 μM; for inhibition at 5 µM: RAW 264.7, 5 μM; for inhibition at 50 µM: RAW 264.7, 50 μM
Description: After the activation by bacterial lipopolysaccharide (LPS), various inflammatory mediators such as tumor necrosis factor-α will be released; Phosphodiesterase PDE4 is also expressed in macrophages, and the inhibitory activity of the compound on phosphodiesterase PDE4 can be reflected by detecting the secretion of tumor necrosis factor-α.
Under the stimulation of 1 μg/ml LPS (L5886, Sigma, St. Louis, MO, USA), the cells were cultured in a 37° C., 5% CO2 incubator for 4 h. The background control with no stimulant and stimulation control wells were also set, with a total volume of 200 μl. The culture supernatant was collected by centrifugation, and the secretion level of tumor necrosis factor-α in the culture supernatant was detected by enzyme-linked immunosorbent assay. The tumor necrosis factor-α detection kit was purchased from BD Pharmingen (San Diego, CA, USA).

RAW 264.7 cells = assay: Cytotoxicity on RAW 264.7 cells (CCK-8 method); assay type: cell-based, mouse
Description: Mouse RAW 264.7 cells were purchased from American Type Culture Collection (Manassas, VA, USA), and cultivated in DMEM culture medium (Hyclone, South Logan, UT, USA) containing 10% fetal bovine serum (Hyclone, South Logan, UT, USA). Cells were collected and counted before use, and inoculated in a 96-well plate (Corning, NY, USA) at 1×10^5/well. […] 20 μl of CCK-8 solution (Dojindo, Kumamoto, Japan) was added at 30 min before the end of the culture. After the cultivation was ended, the absorbance OD value was measured at 450 nm (reference 650 nm) on amicroplate reader (Molecular Devices, Sunnyvale, CA, USA). The toxicity of the compound on RAW 264.7 cells was calculated by dividing the OD value of the test sample by the OD value of the cell control well, which was labeled as the cell survival rate M %.

[2] = target: Human PDE4D catalytic domain (Homo sapiens (Human), UniProt Q08499); assay: Scintillation Proximity Assay (SPA), inhibition of PDE4D catalytic domain activity; assay type: biochemical; details: for inhibition at 1 µM: read-out: PDE4D enzyme activity inhibition rate %; for IC50: PDE4D, unit given as mM, read-out: IC50
TNF-α secretion in PBMC = assay: Inhibition of LPS-stimulated TNF-α secretion in PBMC (ELISA); assay type: cell-based; details: Homo sapiens, TNF-α secretion in PBMC; for inhibition at 1 µM / inhibition at 10 µM: read-out: Inhibition rate %

Sequence of Human PDE4D catalytic domain (Q08499 386-715): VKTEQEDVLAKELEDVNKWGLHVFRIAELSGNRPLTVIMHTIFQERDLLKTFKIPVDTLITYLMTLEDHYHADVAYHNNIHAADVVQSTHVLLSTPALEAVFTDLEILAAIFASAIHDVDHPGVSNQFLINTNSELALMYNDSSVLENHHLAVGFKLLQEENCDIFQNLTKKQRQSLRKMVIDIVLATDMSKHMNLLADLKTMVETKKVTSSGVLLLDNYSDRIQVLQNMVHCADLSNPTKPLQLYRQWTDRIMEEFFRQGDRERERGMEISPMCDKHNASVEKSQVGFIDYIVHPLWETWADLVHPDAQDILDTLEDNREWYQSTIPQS

Compound: COc1cc2c(cc1OC)[C@H](CCc1c[nH]c3ccccc13)N(C(=O)C(F)(F)F)CC2 [(S)-B10, (S)-1-(1-(2-(1H-indol-3-yl)ethyl)-6,7-dimethoxy-3,4-dihydroisoquinoline-2(1H)-yl)-2,2,2-trifluoroethane-1-one]
inhibition at 0.5 µM [1]: -3%
inhibition at 5 µM [1]: -27.9%
inhibition at 50 µM [1]: 33.7%
Cell survival rate/% (RAW 264.7 cells; RAW 264.7, 0.5 μM): 89.2%
Cell survival rate/% (RAW 264.7 cells; RAW 264.7, 5 μM): 84.9%
Cell survival rate/% (RAW 264.7 cells; RAW 264.7, 50 μM): 93.8%
inhibition at 1 µM ([2]; Compound concentration: 1 μM): 29.5%
inhibition at 1 µM (TNF-α secretion in PBMC): 19.9%
inhibition at 10 µM (TNF-α secretion in PBMC): 59.6%

Compound: COCC(=O)N1CCc2cc(OC)c(OC)cc2[C@@H]1CCc1c[nH]c2ccccc12 [(S)-B11, (S)-1-(1-(2-(1H-indol-3-yl)ethyl)-6,7-dimethoxy-3,4-dihydroisoquinoline-2(1H)-yl)-2-methoxyethane-1-one]
inhibition at 0.5 µM [1]: -7.8%
inhibition at 5 µM [1]: 1.1%
inhibition at 50 µM [1]: 51.3%
Cell survival rate/% (RAW 264.7 cells; RAW 264.7, 0.5 μM): 110.9%
Cell survival rate/% (RAW 264.7 cells; RAW 264.7, 5 μM): 111.2%
Cell survival rate/% (RAW 264.7 cells; RAW 264.7, 50 μM): 102.2%
inhibition at 1 µM ([2]; Compound concentration: 1 μM): 82.9%
IC50 [2]: 0.00019 mM
inhibition at 1 µM (TNF-α secretion in PBMC): 60.1%
inhibition at 10 µM (TNF-α secretion in PBMC): 90.7%
IC50 (TNF-α secretion in PBMC; read-out: IC50): 240 nM

Compound: CCOc1cc2c(cc1OC)CCN(C(=O)COC)[C@H]2CCc1c[nH]c2ccccc12 [(S)-B12, (S)-1-(1-(2-(1H-indol-3-yl)ethyl)-7-ethoxy-6-methoxy-3,4-dihydroisoquinoline-2(1H)-yl)-2-methoxyethane-1-one]
inhibition at 0.5 µM [1]: -12.7%
inhibition at 5 µM [1]: 6.8%
inhibition at 50 µM [1]: 52.4%
Cell survival rate/% (RAW 264.7 cells; RAW 264.7, 0.5 μM): 83.8%
Cell survival rate/% (RAW 264.7 cells; RAW 264.7, 5 μM): 95.3%
Cell survival rate/% (RAW 264.7 cells; RAW 264.7, 50 μM): 75.2%
inhibition at 1 µM ([2]; Compound concentration: 1 μM): 92.2%
IC50 [2]: 0.00025 mM
inhibition at 1 µM (TNF-α secretion in PBMC): 44.2%
inhibition at 10 µM (TNF-α secretion in PBMC): 80.7%

Compound: CCOc1cc2c(cc1OC)CCN(C(=O)C(F)(F)F)[C@H]2CCc1c[nH]c2ccc(OC)cc12 [(S)-C54, (S)-7-ethoxy-1-(2-(5-methoxy-1H-indol-3-yl)ethyl)-6-methoxy-3,4-dihydroisoquinoline-2(1H)-trifluoroethane-1-one]
inhibition at 1 µM ([2]; Compound concentration: 1 μM): 46%

Compound: CCOc1cc2c(cc1OC)CCN(S(=O)(=O)c1cccnc1)[C@H]2CCc1c[nH]c2ccc(OC)cc12 [(S)-C55]
inhibition at 1 µM ([2]; Compound concentration: 1 μM): 20.5%

Compound: CCOc1cc2c(cc1OC)CCN(S(=O)(=O)c1ccc(Br)c(F)c1)[C@H]2CCc1c[nH]c2ccc(OC)cc12 [(S)-C56, (S)-7-ethoxy-6-methoxy-1-(2-(5-methoxy-1H-indol-3-yl)ethyl)-2-(3-fluoro-4-bromophenyl) sulfonyl-1,2,3,4-tetrahydroisoquinoline]
inhibition at 1 µM ([2]; Compound concentration: 1 μM): 66.4%

Compound: COc1ccc2[nH]cc(CC[C@H]3c4cc(OC(F)(F)F)c(OC)cc4CCN3C=O)c2c1 [(S)-C63, (S)-7-trifluoromethoxy-1-(2-(5-methoxy-1H-indol-3-yl)ethyl)-6-methoxy-3,4-dihydroisoquinoline-2(1H)-formaldehyde]
inhibition at 1 µM [2]: 75.3%

Compound: COc1ccc2[nH]cc(CC[C@H]3c4cc(OC(F)F)c(OC)cc4CCN3C=O)c2c1 [(S)-C64, (S)-7-difluoromethoxy-1-(2-(5-methoxy-1H-indol-3-yl)ethyl)-6-methoxy-3,4-dihydroisoquinoline-2(1H)-formaldehyde]
inhibition at 1 µM [2]: 76.5%

Compound: COC(=O)c1cc2c(cc1OC)CCN(C=O)[C@H]2CCc1c[nH]c2ccc(OC)cc12 [(S)-C66, methyl-(S)-2-formyl-6-methoxy-1-(2-(5-methoxy-1H-indol-3-yl)ethyl)-1,2,3,4-tetrahydroisoquinoline-7-carboxylate]
inhibition at 1 µM [2]: 88.4%

Compound: COC(=O)c1cc2c(cc1OC)[C@H](CCc1c[nH]c3ccc(OC)cc13)N(C=O)CC2 [(S)-C67, methyl-(S)-2-formyl-7-methoxy-1-(2-(5-methoxy-1H-indol-3-yl)ethyl)-1,2,3,4-tetrahydroisoquinoline-6-carboxylate]
inhibition at 1 µM [2]: 85.9%

Compound: COc1ccc2[nH]cc(CC[C@H]3c4cc(C(F)F)c(OC)cc4CCN3C=O)c2c1 [(S)-C71, (S)-7-difluoromethyl-1-(2-(5-methoxy-1H-indol-3-yl)ethyl)-6-methoxy-3,4-dihydroisoquinoline-2(1H)-formaldehyde]
inhibition at 1 µM [2]: 81.8%

Further lines, results first:

inhibition at 1 µM ([2]; Compound concentration: 1 μM): 66.5%
Compound: CCOc1cc2c(cc1OC)CCN(S(=O)(=O)c1ccccc1F)[C@H]2CCc1c[nH]c2ccc(OC)cc12 [(S)-C57, (S)-7-ethoxy-6-methoxy-1-(2-(5-methoxy-1H-indol-3-yl)ethyl)-2-(2-fluorophenyl)sulfonyl-1,2,3,4-tetrahydroisoquinoline]

inhibition at 1 µM ([2]; Compound concentration: 1 μM): 49.7%
Compound: CCOc1cc2c(cc1OC)CCN(S(=O)(=O)c1ccc(F)cc1)[C@H]2CCc1c[nH]c2ccc(OC)cc12 [(S)-C58, (S)-7-ethoxy-6-methoxy-1-(2-(5-methoxy-1H-indol-3-yl)ethyl)-2-(4-fluorophenyl)sulfonyl-1,2,3,4-tetrahydroisoquinoline]

inhibition at 1 µM ([2]; Compound concentration: 1 μM): 42.4%
Compound: CCOc1cc2c(cc1OC)CCN(C(=O)C(F)F)[C@H]2CCc1c[nH]c2ccc(OC)cc12 [(S)-C59, (S)-7-ethoxy-1-(2-(5-methoxy-1H-indol-3-yl)ethyl)-6-methoxy-3,4-dihydroisoquinolin-2(1H)-2,2-difluoroethane-1-one]

inhibition at 1 µM ([2]; Compound concentration: 1 μM): 42%
Compound: CCOc1cc2c(cc1OC)CCN(S(=O)(=O)c1ccc(OC)cc1)[C@H]2CCc1c[nH]c2ccc(OC)cc12 [(S)-C60, (S)-7-ethoxy-6-methoxy-1-(2-(5-methoxy-1H-indol-3-yl)ethyl)-2-(4-methoxyphenyl)sulfonyl-1,2,3,4-tetrahydroisoquinoline]

inhibition at 1 µM ([2]; Compound concentration: 1 μM): 70.8%
Compound: COc1cc2c(cc1OC)[C@H](CCc1csc3ccccc13)N(C=O)CC2 [(S)-C61, (S)-1-(2-(benzo[b]thiothiophen-3-yl)ethyl)-6,7-dimethoxy-3,4-dihydroisoquinoline-2(1H)-formaldehyde]

inhibition at 1 µM ([2]; Compound concentration: 1 μM): 68.7%
Compound: CCOc1cc2c(cc1OC)CCN(C=O)[C@H]2CCc1c[nH]c2ccc(C#N)cc12 [(S)-C65, (S)-7-ethoxy-6-methoxy-1-(2-(5-cyano-1H-indol-3-yl)ethyl)-3,4-dihydroisoquinoline-2(1H)-formaldehyde]

inhibition at 1 µM ([2]; Compound concentration: 1 μM): 83.1%
Compound: COc1ccc2[nH]cc(CC[C@H]3c4cc(C(=O)O)c(OC)cc4CCN3C=O)c2c1 [(S)-C68, (S)-2-formyl-6-methoxy-1-(2-(5-methoxy-1H-indol-3-yl)ethyl)-1,2,3,4-tetrahydroisoquinoline-7-carboxylic acid]

inhibition at 1 µM ([2]; Compound concentration: 1 μM): 80.5%
Compound: CNC(=O)c1cc2c(cc1OC)CCN(C=O)[C@H]2CCc1c[nH]c2ccc(OC)cc12 [(S)-C69, (S)-2-formyl-6-methoxy-1-(2-(5-methoxy-1H-indol-3-yl)ethyl)-N-methyl-1,2,3,4-tetrahydroisoquinoline-7-carboxamide]

inhibition at 1 µM ([2]; Compound concentration: 1 μM): 83.8%
Compound: COc1ccc2[nH]cc(CC[C@H]3c4cc(C(N)=O)c(OC)cc4CCN3C=O)c2c1 [(S)-C70, (S)-2-formyl-6-methoxy-1-(2-(5-methoxy-1H-indol-3-yl)ethyl)-1,2,3,4-tetrahydroisoquinoline-7-carboxamide]

inhibition at 1 µM ([2]; Compound concentration: 1 μM): 92.3%
Compound: CCOc1cc2c(cc1OC)CCN(C=O)[C@H]2CCc1c[nH]c2ccc(OC(F)(F)F)cc12 [(S)-C76, (S)-7-ethoxy-6-methoxy-1-(2-(5-trifluoromethoxy-1H-indol-3-yl)ethyl)-3,4-dihydroisoquinoline-2(1H)-formaldehyde]

inhibition at 1 µM ([2]; Compound concentration: 1 μM): 93.5%
Compound: CCOc1cc2c(cc1OC)CCN(C=O)[C@H]2CCc1c[nH]c2ccc(OC(F)F)cc12 [(S)-C77, (S)-7-ethoxy-6-methoxy-1-(2-(5-difluoromethoxy-1H-indol-3-yl)ethyl)-3,4-dihydroisoquinoline-2(1H)-formaldehyde]
